This passage reports melting point, stress-induced hyperthermia and IC50 results from US20080269250A1, “Pyrrolidine and Piperidine Acetylene Derivatives for Use as Mglur5 Antagonists” (priority 2005, published 2008).

As a reminder, the melting point is the temperature, or range, at which the solid turns liquid.

SMILES strings stand for the structures. pIC50: −log10 of the molar value.

System in the first data set: not given
Assay: not given
Settings: not given
With `OC1(C#Cc2cccc(Cl)c2)CCN(c2cncnc2)CC1` [Example 1.162, 4-(3-Chloro-phenylethynyl)-1-pyrimidin-5-yl-piperidin-4-ol], the melting point lay within 173 to 177 °C. `OC1(C#Cc2cccc(Cl)c2)CCN(c2ccnc(Cl)c2)CC1` [Example 1.151, 2′-Chloro-4-(3-chloro-phenylethynyl)-3,4,5,6-tetrahydro-2H-[1,4′]bipyridinyl-4-ol] showed a melting point of 139 to 142 °C.

Compound `O=C(c1ccncc1)N1CCC(O)(C#Cc2cccc(Cl)c2)CC1` [Example 1.52, [4-(3-Chloro-phenylethynyl)-4-hydroxy-piperidin-1-yl]-pyridin-4-yl-methanone] displayed a melting point of 171 to 173 °C. Same read-out and setting: the same measure for `CC(C)c1ccc(N2CCC(O)(C#Cc3cccc(Cl)c3)CC2)cc1` [Example 1.128, 4-(3-Chloro-phenylethynyl)-1-(4-isopropyl-phenyl)-piperidin-4-ol]: 114 to 119 °C; for `COc1cccc(C#CC2(O)CCN(C(=O)c3ccoc3)CC2)c1` [Example 1.36, Furan-3-yl-[4-hydroxy-4-(3-methoxy-phenylethynyl)-piperidin-1-yl]-methanone]: 83 to 85 °C. On to `OC1(C#Cc2cccc(Cl)c2)CCN(c2cccnc2)CC1` [Example 1.138, 4-(3-Chloro-phenylethynyl)-3,4,5,6-tetrahydro-2H-[1,3]bipyridinyl-4-ol], for which the melting point was in the range of 124 to 128 °C.

For the compound `O=C(c1ncc[nH]1)N1CCC(O)(C#Cc2cccc(Cl)c2)CC1` [Example 1.4, [4-(3-Chloro-phenylethynyl)-4-hydroxy-piperidin-1-yl]-(1H-imidazol-2-yl)-methanone], the melting point fell in the range of 75 to 80 °C.

As for `O=C(c1ccoc1)N1CCC(O)(C#Cc2cccc(F)c2)CC1` [Example 1.31, [4-(3-Fluoro-phenylethynyl)-4-hydroxy-piperidin-1-yl]-furan-3-yl-methanone], the melting point lay in the range of 67 to 81 °C. `O=C(c1ccno1)N1CCC(O)(C#Cc2cccc(Cl)c2)CC1` [Example 1.3, [4-(3-Chloro-phenylethynyl)-4-hydroxy-piperidin-1-yl]-isoxazol-5-yl-methanone] came in with a melting point of 132 to 135 °C.

Regarding `OC1(C#Cc2cccc(Cl)c2)CCN(c2nc3ccccc3s2)CC1` [Example 1.144, 1-Benzothiazol-2-yl-4-(3-chloro-phenylethynyl)-piperidin-4-ol], the melting point fell in the range of 154 to 157 °C. For `O=C(c1ccoc1)N1CCC(O)(C#Cc2ccc(F)cc2F)CC1` [Example 1.35, [4-(2,4-Difluoro-phenylethynyl)-4-hydroxy-piperidin-1-yl]-furan-3-yl-methanone], the melting point is 80 to 94 °C. On the same count and under the same terms, the value for `Cc1cccnc1N1CCC(O)(C#Cc2cccc(Cl)c2)CC1` [Example 1.148, 4-(3-Chloro-phenylethynyl)-3′-methyl-3,4,5,6-tetrahydro-2H-[1,2′]bipyridinyl-4-ol] was 134 to 138 °C; that for `Cc1ccccc1N1CCC(O)(C#Cc2cccc(Cl)c2)CC1` [Example 1.137, 4-(3-Chloro-phenylethynyl)-1-o-tolyl-piperidin-4-ol] was 128 to 130 °C; that for `Cc1ccc(C)c(C#CC2(O)CCN(C(=O)c3ccoc3)CC2)c1` [Example 1.37, [4-(2,5-Dimethyl-phenylethynyl)-4-hydroxy-piperidin-1-yl]-furan-3-yl-methanone] was 110 to 114 °C. As to `O=C(C1Oc2ccccc2O1)N1CCC(O)(C#Cc2cccc(Cl)c2)C1` (stereo not drawn) [Example 3.11, Benzo[1,3]dioxol-2-yl-[3-(3-chloro-phenylethynyl)-3-hydroxy-pyrrolidin-1-yl]-methanone], the melting point was 153 to 155 °C. In turn, `O=C(c1ccoc1)N1CCC(O)(C#Cc2cccc(Cl)c2)CC1` [Example 1, [4-(3-Chloro-phenylethynyl)-4-hydroxy-piperidin-1-yl]-furan-3-yl-methanone] had a melting point of 93 to 94 °C.

In turn, `Cc1ncccc1N1CCC(O)(C#Cc2cccc(Cl)c2)CC1` [Example 1.164, 4-(3-Chloro-phenylethynyl)-2′-methyl-3,4,5,6-tetrahydro-2H-[1,3′]-bipyridinyl-4-ol] gave a melting point of 98 to 102 °C. As for `OC1(C#Cc2cccc(Cl)c2)CCN(c2cccc3nccnc23)CC1` [Example 1.139, 4-(3-Chloro-phenylethynyl)-1-quinoxalin-5-yl-piperidin-4-ol], the melting point lay in the range of 68 to 70 °C.

The compound `CN1CCC(C(=O)N2CCC(O)(C#Cc3cccc(Cl)c3)CC2)CC1` [Example 1.2, [4-(3-Chloro-phenylethynyl)-4-hydroxy-piperidin-1-yl]-(1-methyl-piperidin-4-yl)-methanone] displayed a melting point of 134 to 136 °C. In the case of `O=C(c1ccoc1)N1CCC(O)(C#Cc2ccc(Cl)cc2)CC1` [Example 1.34, [4-(4-Chloro-phenylethynyl)-4-hydroxy-piperidin-1-yl]-furan-3-yl-methanone], the melting point was 124 to 134 °C.

A further data set relates to mice. In words: stress-induced hyperthermia in mice. In kind it is in vivo. The note with it: 10 mg/kg p.o.; control 0.93±0.1° C.; p<0.01. On the procedure:
A. Lecci et al., Psychopharmacol 101, 255-261]. At doses of about 0.1 to about 30 mg/kg p.o., selected agents of the invention reverse the stress-induced hyperthermia.
The compound `O=C(c1cc2ccccc2o1)N1CCC(O)(C#Cc2cccc(Cl)c2)CC1` [Example 1.8, Benzofuran-2-yl-[4-(3-chloro-phenyl-ethynyl)-4-hydroxy-piperidin-1-yl]-methanone] gave a stress-induced hyperthermia of 0.44±0.08 °C.

The same data set, now with this note: 30 mg/kg p.o.; control 0.93±0.1° C.; p<0.05.
Take `O=C(c1cc2ccccc2o1)N1CCC(O)(C#Cc2cccc(Cl)c2)CC1` [Example 1.8, Benzofuran-2-yl-[4-(3-chloro-phenyl-ethynyl)-4-hydroxy-piperidin-1-yl]-methanone]: the stress-induced hyperthermia is 0.46±0.14 °C.

Staying with this data set, now noted: 100 mg/kg p.o.; control 0.93±0.1° C.; p<0.001.
`O=C(c1cc2ccccc2o1)N1CCC(O)(C#Cc2cccc(Cl)c2)CC1` [Example 1.8, Benzofuran-2-yl-[4-(3-chloro-phenyl-ethynyl)-4-hydroxy-piperidin-1-yl]-methanone] returned a stress-induced hyperthermia of 0.24±0.12 °C.

The target of the next data set is T1, hmGluR5 (Homo sapiens, UniProt P41594).
T1 construct: expressed in transfected cells
T1 sequence (P41594 21-1180 isoform P41594-2 limits assumed): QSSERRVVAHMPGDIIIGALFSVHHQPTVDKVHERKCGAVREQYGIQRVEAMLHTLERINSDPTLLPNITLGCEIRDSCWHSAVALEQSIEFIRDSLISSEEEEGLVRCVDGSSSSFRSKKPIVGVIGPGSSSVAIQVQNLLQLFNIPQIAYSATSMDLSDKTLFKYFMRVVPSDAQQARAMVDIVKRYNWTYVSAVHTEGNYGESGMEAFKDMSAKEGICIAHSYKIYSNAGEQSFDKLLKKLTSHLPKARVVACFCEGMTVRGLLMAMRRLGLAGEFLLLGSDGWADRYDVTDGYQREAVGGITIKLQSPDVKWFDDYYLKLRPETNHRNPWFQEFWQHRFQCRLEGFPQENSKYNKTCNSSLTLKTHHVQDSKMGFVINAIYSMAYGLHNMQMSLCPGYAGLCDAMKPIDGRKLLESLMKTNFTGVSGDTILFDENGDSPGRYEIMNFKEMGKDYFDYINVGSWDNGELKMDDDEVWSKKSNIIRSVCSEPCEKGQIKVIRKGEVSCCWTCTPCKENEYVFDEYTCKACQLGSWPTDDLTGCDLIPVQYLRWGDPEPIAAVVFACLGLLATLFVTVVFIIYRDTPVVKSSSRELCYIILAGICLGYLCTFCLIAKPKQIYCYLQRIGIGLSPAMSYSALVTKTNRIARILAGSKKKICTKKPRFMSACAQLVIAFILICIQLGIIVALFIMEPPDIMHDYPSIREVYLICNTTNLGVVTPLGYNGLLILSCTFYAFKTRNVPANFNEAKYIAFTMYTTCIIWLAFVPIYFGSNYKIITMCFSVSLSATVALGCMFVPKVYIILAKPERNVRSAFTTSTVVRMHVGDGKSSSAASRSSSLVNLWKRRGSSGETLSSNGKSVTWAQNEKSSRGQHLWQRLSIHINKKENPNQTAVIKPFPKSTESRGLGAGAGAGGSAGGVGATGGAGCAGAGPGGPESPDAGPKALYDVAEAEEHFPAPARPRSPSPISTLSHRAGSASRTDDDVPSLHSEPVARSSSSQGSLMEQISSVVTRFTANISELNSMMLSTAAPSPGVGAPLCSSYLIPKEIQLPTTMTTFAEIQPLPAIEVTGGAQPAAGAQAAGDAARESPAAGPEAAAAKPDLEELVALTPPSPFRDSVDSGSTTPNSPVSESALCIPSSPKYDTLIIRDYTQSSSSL
In words: inhibition of quinqualate-induced inositol phosphate turnover in hmGluR5 expressing cells. In kind it is cell-based. Conditions: read-out: IC50 concentration, inhibition of quinqualate-induced inositol phosphate turnover. The text has this:
This can be determined in vitro for example at recombinant human metabotropic glutamate receptors, especially PLC-coupled subtypes thereof such as mGluRs, using different procedures like, for example, measurement of the inhibition of the agonist induced elevation of intracellular Ca^2+ concentration in accordance with L. P. Daggett et al., Neuropharm. Vol. 34, pages 871-886 (1995), P. J. Flor et al., J. Neurochem. Vol. 67, pages 58-63 (1996) or by determination to what extent the agonist induced elevation of the inositol phosphate turnover is inhibited as described by T. Knoepfel et al., Eur. J. Pharmacol. Vol. 288, pages 389-392 (1994), L. P. Daggett et al., Neuropharm. Vol. […] and references cited therein. Isolation and expression of human mGluR subtypes are described in U.S. Pat. No. 5,521,297. Selected agents of the invention show IC50 values for the inhibition of the agonist (e.g. glutamate or quisqualate) induced elevation of intracellular Ca2+ concentration or the agonist (e.g. glutamate or quisqualate) induced inositol phosphate turnover, measured in recombinant cells expressing hmGluR5a of about 1 nM to about 50 μM.
In the case of `O=C(c1cc2ccccc2o1)N1CCC(O)(C#Cc2cccc(Cl)c2)CC1` [Example 1.8, Benzofuran-2-yl-[4-(3-chloro-phenyl-ethynyl)-4-hydroxy-piperidin-1-yl]-methanone], the pIC50 is 6.54.
